According to paper PMC6811774, “Potent, selective, and subunit‐dependent activation of TRPC5 channels by a xanthine derivative” (British Journal of Pharmacology, 2019):

What was measured:
TRPC4:C1 channels = TRPC4:C1 channels (Homo sapiens, UniProt P48995+Q9UBN4); test: Excised outside-out patch-clamp, HEK 293 cells transiently co-expressing hTRPC4 and hTRPC1; assay type: cell-based; parameters: expressed in transfected cells; host or cells: HEK 293 (transient co-expression); details: 30 nM EA; at 3 to 100 nM AM237
Chain of TRPC4:C1 channels (Q9UBN4 whole entry): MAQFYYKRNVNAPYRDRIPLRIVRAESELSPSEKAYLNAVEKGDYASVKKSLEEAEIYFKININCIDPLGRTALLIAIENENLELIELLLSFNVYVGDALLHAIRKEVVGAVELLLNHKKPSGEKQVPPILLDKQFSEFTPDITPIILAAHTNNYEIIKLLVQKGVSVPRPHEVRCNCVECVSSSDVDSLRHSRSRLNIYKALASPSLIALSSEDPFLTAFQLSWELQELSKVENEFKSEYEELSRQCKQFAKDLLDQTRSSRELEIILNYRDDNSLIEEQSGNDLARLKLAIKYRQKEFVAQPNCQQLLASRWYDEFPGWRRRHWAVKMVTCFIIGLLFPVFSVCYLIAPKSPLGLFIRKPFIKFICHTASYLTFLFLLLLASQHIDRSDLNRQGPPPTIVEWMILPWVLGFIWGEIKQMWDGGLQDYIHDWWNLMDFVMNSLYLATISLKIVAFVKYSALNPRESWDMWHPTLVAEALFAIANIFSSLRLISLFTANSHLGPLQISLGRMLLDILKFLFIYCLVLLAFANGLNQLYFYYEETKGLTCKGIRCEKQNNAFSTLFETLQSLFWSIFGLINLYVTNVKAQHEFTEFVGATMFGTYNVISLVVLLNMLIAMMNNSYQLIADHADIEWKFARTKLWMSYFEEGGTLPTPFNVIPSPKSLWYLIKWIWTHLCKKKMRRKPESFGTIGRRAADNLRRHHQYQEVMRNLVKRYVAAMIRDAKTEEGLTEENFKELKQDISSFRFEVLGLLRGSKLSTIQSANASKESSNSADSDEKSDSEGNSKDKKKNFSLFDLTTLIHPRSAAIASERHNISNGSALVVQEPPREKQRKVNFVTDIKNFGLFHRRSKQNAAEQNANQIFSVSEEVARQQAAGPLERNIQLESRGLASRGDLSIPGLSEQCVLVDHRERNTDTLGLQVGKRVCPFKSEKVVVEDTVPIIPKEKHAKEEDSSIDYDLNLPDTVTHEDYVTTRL
Chain of TRPC4:C1 channels (P48995 whole entry): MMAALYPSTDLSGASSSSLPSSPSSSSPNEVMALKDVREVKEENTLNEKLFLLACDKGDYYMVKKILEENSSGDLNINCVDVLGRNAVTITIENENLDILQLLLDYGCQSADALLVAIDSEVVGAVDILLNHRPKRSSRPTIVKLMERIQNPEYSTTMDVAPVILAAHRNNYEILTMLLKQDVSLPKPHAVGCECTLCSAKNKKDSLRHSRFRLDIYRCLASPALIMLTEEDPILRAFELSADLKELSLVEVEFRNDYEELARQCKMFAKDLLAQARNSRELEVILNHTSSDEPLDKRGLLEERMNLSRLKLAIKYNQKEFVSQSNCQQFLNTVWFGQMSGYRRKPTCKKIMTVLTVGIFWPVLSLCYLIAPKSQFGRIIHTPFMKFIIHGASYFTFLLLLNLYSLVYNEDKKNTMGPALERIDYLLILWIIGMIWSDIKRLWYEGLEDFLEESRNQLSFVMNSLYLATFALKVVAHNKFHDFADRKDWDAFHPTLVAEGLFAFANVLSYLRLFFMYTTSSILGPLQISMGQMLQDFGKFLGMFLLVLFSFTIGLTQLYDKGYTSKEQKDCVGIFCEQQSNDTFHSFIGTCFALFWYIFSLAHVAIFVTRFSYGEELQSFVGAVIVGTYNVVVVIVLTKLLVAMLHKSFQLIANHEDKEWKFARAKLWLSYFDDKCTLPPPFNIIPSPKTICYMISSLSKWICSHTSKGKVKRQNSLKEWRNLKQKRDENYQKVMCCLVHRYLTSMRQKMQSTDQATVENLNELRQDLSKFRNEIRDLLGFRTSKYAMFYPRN
Description: For electrophysiology experiments, cells were plated at a low density of 20–30% onto round or square glass coverslips (13 mm diameter or 5 × 5 mm), and TRPC expression in HEK T‐REx was induced with 1 μg·ml^−1 tetracycline 24 hr before experimentation. Experiments were carried out at room temperature. Extracellular solution consisted of SBS. Patch‐clamp recordings were performed in whole‐cell mode (Figure S7) and in excised outside‐out patch mode under voltage clamp at room temperature using 2–4 MΩ patch pipettes fabricated from borosilicate glass capillaries with an outside diameter of 1 mm and an inside diameter of 0.58 mm (Harvard Apparatus). The voltage protocol comprised voltage ramps applied from −100 to +100 mV every 10 s from a holding potential of 0 mV. The patch‐clamp currents were recorded using Axopatch 200B or HEKA EPC‐800 amplifiers, digitized by a Digidata 1440 or PCI6229 (National Instruments Japan, Tokyo, Japan) and recorded to a computer using pCLAMP10 (Molecular Devices) or WinWCPV4.5 (developed by Dr John Dempster, University of Strathclyde, UK). The data were filtered at 1 kHz and analysed offline using Clampfit 10.2 software or WinWCPV4.5 and Origin 9.1 software (OriginLab, Northampton, MA). […]

wild-type HEK 293 cells = test: [Ca2+]i measurement in wild-type HEK 293 cells; assay type: cell-based, human; details: 0.3–300 nM
Description: Intracellular concentration of Ca^2+ ([Ca^2+]i) recordings were carried out using the ratiometric Ca^2+ dye Fura‐2; 24 hr before experiments, cells were plated onto black, clear bottom poly‐D‐lysine coated 96‐well plates, and for T‐REx cells, TRPM2 or TRPC1/4/5 protein expression was induced with 1 μg·ml^−1 tetracycline at this point. All cells were used at 90% confluence. To load cells with the Fura‐2 dye, media was removed and cells were incubated with standard bath solution (SBS; composition, in mM, NaCl 130, KCl 5, glucose 8, HEPES 10, MgCl2 1.2, and CaCl2 1.5) containing 2‐μM Fura‐2 acetoxymethyl ester (Fura‐2 AM) and 0.01% pluronic acid for 1 hr at 37°C. For CHO cells stably expressing TRPV4 protein, probenecid (final concentration 2.5 mM) was present in all buffers used from the point of Fura‐2 AM application. After this incubation, cells were washed with fresh SBS and incubated at room temperature for a further 30 min. SBS was then changed to recording buffer (SBS with 0.01% pluronic acid and 0.1% DMSO to match compound buffer) immediately prior to experimentation. In the case of inhibitor studies, cells were washed twice with fresh SBS after incubation with Fura‐2 AM, followed by the addition of SBS with 0.01% pluronic acid and the relevant inhibitor or vehicle. Cells were then incubated for 30 min prior to the experiment. […]

TRPV4 = biological target: T1, TRPV4 (Homo sapiens, UniProt Q9HBA0); test: [Ca2+]i selectivity assay, CHO cells stably expressing hTRPV4, 4α-PDD activation; assay type: cell-based; details: 300 nM AM237; 5 μM 4α-PDD
T1 construct: expressed in transfected cells
T1 sequence (Q9HBA0 whole entry): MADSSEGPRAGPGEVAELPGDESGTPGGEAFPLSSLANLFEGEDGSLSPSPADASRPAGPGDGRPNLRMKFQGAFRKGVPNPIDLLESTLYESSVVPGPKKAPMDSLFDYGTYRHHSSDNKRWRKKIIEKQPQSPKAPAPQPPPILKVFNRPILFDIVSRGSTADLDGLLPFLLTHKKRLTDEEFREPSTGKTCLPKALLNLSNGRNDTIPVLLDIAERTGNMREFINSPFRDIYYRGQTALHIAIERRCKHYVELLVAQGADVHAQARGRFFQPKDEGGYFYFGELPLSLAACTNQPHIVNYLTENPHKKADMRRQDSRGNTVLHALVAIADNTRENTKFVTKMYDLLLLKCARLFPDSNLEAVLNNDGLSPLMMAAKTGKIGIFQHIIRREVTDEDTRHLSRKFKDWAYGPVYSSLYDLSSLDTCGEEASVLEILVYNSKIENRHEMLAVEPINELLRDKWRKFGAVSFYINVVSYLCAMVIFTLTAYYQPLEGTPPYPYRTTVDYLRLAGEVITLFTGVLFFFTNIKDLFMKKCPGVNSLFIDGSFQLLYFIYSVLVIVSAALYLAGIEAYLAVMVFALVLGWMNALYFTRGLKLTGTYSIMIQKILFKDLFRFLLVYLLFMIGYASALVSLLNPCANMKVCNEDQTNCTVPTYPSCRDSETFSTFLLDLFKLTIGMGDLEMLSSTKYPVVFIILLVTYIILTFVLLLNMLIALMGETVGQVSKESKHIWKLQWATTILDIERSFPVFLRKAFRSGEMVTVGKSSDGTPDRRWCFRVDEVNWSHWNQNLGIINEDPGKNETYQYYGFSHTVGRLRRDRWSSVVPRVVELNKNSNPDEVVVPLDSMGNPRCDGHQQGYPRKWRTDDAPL

[1] = biological target: T2, TRPC5:C5 channels (hTRPC5) (Homo sapiens, UniProt Q9UL62); test: Excised outside-out patch-clamp, hTRPC5-expressing HEK (Tet+) T-REx cells; assay type: cell-based
T2 construct: expressed in transfected cells
T2 sequence (Q9UL62 1-973): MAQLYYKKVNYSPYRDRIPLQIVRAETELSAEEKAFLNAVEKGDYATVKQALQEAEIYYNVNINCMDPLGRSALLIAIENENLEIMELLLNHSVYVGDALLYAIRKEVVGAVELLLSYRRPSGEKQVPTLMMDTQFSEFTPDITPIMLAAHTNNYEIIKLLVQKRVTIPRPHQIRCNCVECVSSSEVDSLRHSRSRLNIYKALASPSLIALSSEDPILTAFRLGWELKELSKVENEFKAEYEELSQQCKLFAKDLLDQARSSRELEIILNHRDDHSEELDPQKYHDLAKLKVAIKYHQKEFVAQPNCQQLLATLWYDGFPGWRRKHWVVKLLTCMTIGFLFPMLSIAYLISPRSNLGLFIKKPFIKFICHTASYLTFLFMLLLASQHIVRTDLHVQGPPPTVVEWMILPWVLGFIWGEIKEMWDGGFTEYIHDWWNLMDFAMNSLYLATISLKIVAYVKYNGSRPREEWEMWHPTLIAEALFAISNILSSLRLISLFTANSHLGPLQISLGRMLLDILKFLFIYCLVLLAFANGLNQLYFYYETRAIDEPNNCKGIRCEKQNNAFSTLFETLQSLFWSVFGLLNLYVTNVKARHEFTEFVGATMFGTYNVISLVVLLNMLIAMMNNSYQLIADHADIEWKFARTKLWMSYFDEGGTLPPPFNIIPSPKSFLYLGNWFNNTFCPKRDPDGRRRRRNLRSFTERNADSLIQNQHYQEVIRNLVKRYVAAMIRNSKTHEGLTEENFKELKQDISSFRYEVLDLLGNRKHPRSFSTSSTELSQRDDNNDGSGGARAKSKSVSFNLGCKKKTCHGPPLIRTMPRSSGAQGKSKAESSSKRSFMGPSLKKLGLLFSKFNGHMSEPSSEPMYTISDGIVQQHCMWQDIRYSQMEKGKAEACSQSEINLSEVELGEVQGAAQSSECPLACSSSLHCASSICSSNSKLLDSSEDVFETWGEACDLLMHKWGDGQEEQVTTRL
Description: For electrophysiology experiments, cells were plated at a low density of 20–30% onto round or square glass coverslips (13 mm diameter or 5 × 5 mm), and TRPC expression in HEK T‐REx was induced with 1 μg·ml^−1 tetracycline 24 hr before experimentation. Experiments were carried out at room temperature. Extracellular solution consisted of SBS. Patch‐clamp recordings were performed in whole‐cell mode (Figure S7) and in excised outside‐out patch mode under voltage clamp at room temperature using 2–4 MΩ patch pipettes fabricated from borosilicate glass capillaries with an outside diameter of 1 mm and an inside diameter of 0.58 mm (Harvard Apparatus). The voltage protocol comprised voltage ramps applied from −100 to +100 mV every 10 s from a holding potential of 0 mV. The patch‐clamp currents were recorded using Axopatch 200B or HEKA EPC‐800 amplifiers, digitized by a Digidata 1440 or PCI6229 (National Instruments Japan, Tokyo, Japan) and recorded to a computer using pCLAMP10 (Molecular Devices) or WinWCPV4.5 (developed by Dr John Dempster, University of Strathclyde, UK). The data were filtered at 1 kHz and analysed offline using Clampfit 10.2 software or WinWCPV4.5 and Origin 9.1 software (OriginLab, Northampton, MA). The bath solution consisted of SBS and the pipette solution (intracellular solution) contained 145‐mM CsCl, 2‐mM MgCl2, 10‐mM HEPES, 1‐mM EGTA (free acid), 5‐mM ATP (sodium salt), and 0.1‐mM NaGTP, titrated to pH 7.2 with CsOH. All solutions were filtered using a 0.2 μm filter (Sartorius, UK). Comparisons of peak current sizes mediated by EA‐activated TRPC1/4/5 channels in whole cells and excised outside‐out patches are provided in Figure S12.

Which results are given for `Cn1c(=O)n(CCCO)c(=O)c2c1nc(Oc1ccc(Cl)c(OC(F)(F)F)c1)n2Cc1ccc(Cl)cc1` [AM237]?
Inhibition of currents induced by EA (TRPC4:C1 channels): full inhibition; Effect on [Ca2+]i in wild-type HEK 293 cells (wild-type HEK 293 cells): did not increase; Activation or inhibition of TRPV4 (TRPV4): no activation or inhibition; Effect on inward and outward currents induced by EA ([1]; 30 nM EA, outside-out patch): partially suppressed; Amplitude of outward current response compared to response induced by 30-nM EA ([1]; +100 mV, outside-out patch): up to 45%; Amplitude of inward current response compared to response induced by 30-nM EA ([1]; -100 mV, outside-out patch): up to 25%; Concentration giving peak current ([1]; in the presence of 1- and 3-nM Pico145, decreasing at 300 nM and 1 μM): 100 nM; Concentration giving maximum current response ([1]; no Pico145, lower responses at 100 nM): 30 nM
